Source: patent US11643430B2, “Porphyrin compound or salt thereof, cancer therapeutic agent, photosensitizer, and fluorescent probe” (M.T.3, Inc., priority 2020, dated 2023)

Tests used:
[1] = Quantum yield of singlet oxygen by 1270 nm phosphorescence; assay type: physicochemical; conditions: in ethanol, absorbance 0.1, irradiated at 355 nm, phosphorescence at 1270 nm, TPPS standard; sodium salt
Description: (§1) Next, the fluorescence quantum yields (Φf) and fluorescence lifetimes (τf) of the compounds were measured. Moreover, the quantum yields (ΦΔ) of singlet oxygen generated from the compounds of Structural Formulae (IIa) and (III) were measured.
Next, the measurement of ΦΔ will be described. First, the compounds of Structural Formula (IIa) and (III) were each dissolved in ethanol at such a concentration that gave an absorbance of 0.1, and then were irradiated with light at 355 nm using Nd^3+:YAG LASER (LS-2137U, manufactured by Lotis TII). Next, singlet oxygen was measured using a self-produced infrared emission measurement apparatus in which a near-infrared photomultiplier tube (R5509-42, manufactured by Hamamatsu Photonics K.K.) is used. It should be noted that singlet oxygen was measured 17 times, and the average value was shown as a phosphorescence spectrum in FIG. 4. Singlet oxygen emits phosphorescence at a near-infrared wavelength 1270 nm. Therefore, in this specification, ΦΔ was determined by measuring the intensity of such phosphorescence. TPPS (ΦΔ=0.63) was used as a standard substance for determination of ΦΔ. ΦΔ of the compound of Structural Formula (IIa) and ΦΔ of the compound of Structural Formula (III) were determined as 0.57 and 0.53, respectively.

[2] = Fluorescence lifetime from fluorescence decay curves; assay type: physicochemical; conditions: monoexponential curve fitting, deconvolution method
Description: as §1
Each of the fluorescence decay curves was subjected to curve fitting with a monoexponential function using a deconvolution method, and thus τf was determined.

[3] = Fluorescence quantum yield, absolute PL quantum yield spectrometer; assay type: physicochemical
Description: as §1

Human-derived A549 cells = test: Efficiency of uptake by cancer cells; assay type: cell-based; conditions: 3 μM, 12 hours incubation, fluorescence ex 418 nm / em 646 nm
Source text: The compound of Structural Formula (III) to which a sulfur-containing sugar-chain is linked is more likely to accumulate in tumor. Regarding such an improvement in the accumulation, the following describes the evaluation of the efficiency of uptake of the compounds of structural Formulae (IIa) and (III) by cancer cells.
Human-derived A549 cells were used as cancer cells. Dulbecco's Modified Eagle Medium (DMEM) supplemented with 10% Fetal Bovine Serum (FBS: manufactured by EQUITECH-BIO, INC.) and 1% Penicillin Streptomycin Glutamine (Invitrogen (trademark)) was used as a culture medium, which will be described later. Phosphate buffered saline (PBS) was used as a cell washing solution, and PBS containing 0.05% trypsin and 0.02% EDTA was used as a cell detaching solution. A circular plastic petri dish (Greiner Bio-one, 628160) with a diameter of 6 cm was used as a culture container.
First, an A549 cell suspension was cultured on a culture medium. 100 μL of the cell suspension was added to each well of a black 96-well plate and cultured at 37° C. in a 5% CO2 atmosphere for a day. […] Furthermore, the concentrations of the photosensitizing agents inside the cells were quantified using a fluorescence micro plate reader (Infinite M200 Pro, manufactured by TECAN). For the fluorescence observation, the excitation wavelength was 418 nm, and the observation wavelength was 646 nm. […]

[4] = standard for determination of ΦΔ; cited from earlier work

| Molecule | quantum yield of singlet oxygen (ΦΔ) [1] | fluorescence lifetime (τf) [2] | fluorescence quantum yield (Φf) [3] | relative uptake efficiency versus compound of Structural Formula (III) (Human-derived A549 cells) [times] | quantum yield of singlet oxygen (ΦΔ) of standard substance [4] |
| --- | --- | --- | --- | --- | --- |
| 3-trimethylsilyl-1-benzenecarboxyamide,N-[3-n-propyl-α-D-quinovopyranoside]-5-[10,15,20-tris(3-methoxycarbonyl-5-trimethylsilylphenyl)porphyrin] sodium salt [IIa] | 0.53 | 9.2 | 0.063 | 1.8 | – |
| COC(=O)c1cc(-c2c3nc(c(-c4cc(C(=O)OC)cc([Si](C)(C)C)c4)c4ccc([nH]4)c(-c4cc(C(=O)OC)cc([Si](C)(C)C)c4)c4nc(c(-c5cc(C(=O)NCCCO[C@H]6O[C@H](CO)[C@@H](O)[C@H](O)[C@H]6O)cc([Si](C)(C)C)c5)c5ccc2[nH]5)C=C4)C=C3)cc([Si](C)(C)C)c1 [IId, 3-trimethylsilyl-1-benzenecarboxyamide,N-[3-n-propyl-α-D-glucopyranoside]-5-[10,15,20-tris(3-methoxycarbonyl-5-trimethylsilylphenyl)porphyrin]] | – | 9.3 | 0.056 | – | – |
| O=S(=O)(O)c1ccc(-c2c3nc(c(-c4ccc(S(=O)(=O)O)cc4)c4ccc([nH]4)c(-c4ccc(S(=O)(=O)O)cc4)c4nc(c(-c5ccc(S(=O)(=O)O)cc5)c5ccc2[nH]5)C=C4)C=C3)cc1 [TPPS] | – | – | – | – | 0.63 |
